Here are results for 17 compounds from US20260241012A1, “1,8-NAPHTHYRIDIN-2-ONE HETEROBIFUNCTIONAL BCL6 DEGRADERS” (Treeline Biosciences, Inc., priority 2022, published 2026).

Bounds are passed on as bounds.

This experiment concerns the target T1, N-terminal HiBiT tagged BCL6 (Homo sapiens, UniProt P41182).
T1 construct: expressed in transfected cells; host or cells: HT1080 (ATCC CCL-121), stably transduced with lentivirus pLV-UBC-N-HiBiT-BCL6-PGK-puro
The experiment can be described thus: HiBiT based degradation assay. The format is cell-based. As to conditions: HT1080 cells expressing N-terminal HiBiT tagged BCL6, 5 hours of incubation; for Ymin (5 hr): BCL6 degradation normalized with DMSO control; for DC50: four-parameter logistic model, read-out: EC50 (5 hr). The method, boiled down:
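Degradation measured by luminescence from the Nano-Glo HiBiT lytic reagent (15 min, room temperature), normalized to DMSO controls and fitted to a four-parameter curve.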
A general note: The HiBiT peptide binds its large partner to form an active luciferase.

For the compound `CNC(=O)COc1cc2cc(Nc3nc(NC4CCC5(CC4)CN(c4ccc6c(C7CCC(=O)NC7=O)nn(C)c6c4)C5)ncc3Cl)cnc2n(C(C)C)c1=O` (stereo not shown) [Compound 206, 2-[[6-[[5-chloro-2-[[2-[3-(2,6-dioxo-3-piperidyl)-1-methyl-indazol-6-yl]-2-azaspiro[3.5]nonan-7-yl]amino]pyrimidin-4-yl]amino]-1-isopropyl-2-oxo-1,8-naphthyridin-3-yl]oxy]-N-methyl-acetamide], the “Ymin (5 hr)” value is on record as “++++ (Ymin < 30%)” and the DC50 is under 10 nM.

As to `CNC(=O)COc1cc2cc(Nc3nc(N4CC5(CC(N(C)c6ccc7c(C8CCC(=O)NC8=O)nn(C)c7c6)C5)C4)ncc3Cl)cnc2n(C(C)C)c1=O` (stereo not shown) [Compound 207, 2-[[6-[[5-chloro-2-[6-[[3-(2,6-dioxo-3-piperidyl)-1-methyl-indazol-6-yl]-methyl-amino]-2-azaspiro[3.3]heptan-2-yl]pyrimidin-4-yl]amino]-1-isopropyl-2-oxo-1,8-naphthyridin-3-yl]oxy]-N-methyl-acetamide], the “Ymin (5 hr)” value is listed as “+++ (30% ≤ Ymin < 50%)” and the DC50 is under 10 nM.

Turning to `CNC(=O)COc1cc2cc(Nc3nc(N4CCN(CC5CCN(c6cccc7c(C8CCC(=O)NC8=O)nn(C)c67)CC5)[C@H](C(C)(C)O)C4)ncc3Cl)cnc2n(C(C)C)c1=O` (stereo partly drawn) [Compound 208a, 2-[[6-[[5-chloro-2-[(3S)-4-[[1-[3-(2,6-dioxo-3-piperidyl)-1-methyl-indazol-7-yl]-4-piperidyl]methyl]-3-(1-hydroxy-1-methyl-ethyl)piperazin-1-yl]pyrimidin-4-yl]amino]-1-isopropyl-2-oxo-1,8-naphthyridin-3-yl]oxy]-N-methyl-acetamide], the “Ymin (5 hr)” value was “+++ (30% ≤ Ymin < 50%)” and the DC50 lay within 10 to 100 nM.

Regarding `CNC(=O)COc1cc2cc(Nc3nc(N4CCN(CC5CCN(c6cccc7c(C8CCC(=O)NC8=O)nn(C)c67)CC5)[C@@H](C(C)(C)O)C4)ncc3Cl)cnc2n(C(C)C)c1=O` (stereo partly shown) [Compound 208b], the “Ymin (5 hr)” value was “++++ (Ymin < 30%)” and the DC50 fell in the range of 10 to 100 nM.

Take `CNC(=O)COc1cc2cc(Nc3nc(N4CCC(CN5C6CC5CN(c5cccc7c(C8CCC(=O)NC8=O)nn(C)c57)C6)CC4)ncc3Cl)cnc2n(C(C)C)c1=O` (stereo not shown) [Compound 209, 2-[[6-[[5-chloro-2-[4-[[3-[3-(2,6-dioxo-3-piperidyl)-1-methyl-indazol-7-yl]-3,6-diazabicyclo[3.1.1]heptan-6-yl]methyl]-1-piperidyl]pyrimidin-4-yl]amino]-1-isopropyl-2-oxo-1,8-naphthyridin-3-yl]oxy]-N-methyl-acetamide]: the “Ymin (5 hr)” value was “+++ (30% ≤ Ymin < 50%)” and the DC50 is under 10 nM.

In the case of `CNC(=O)COc1cc2cc(Nc3nc(N4CCC(CN5CCN(c6cccc7c(C8CCC(=O)NC8=O)nn(C)c67)[C@@H](C)C5)CC4)ncc3F)cnc2n(C(C)C)c1=O` (stereo partly drawn) [Compound 210a, 2-[[6-[[2-[4-[[(3S)-4-[3-(2,6-dioxo-3-piperidyl)-1-methyl-indazol-7-yl]-3-methyl-piperazin-1-yl]methyl]-1-piperidyl]-5-fluoro-pyrimidin-4-yl]amino]-1-isopropyl-2-oxo-1,8-naphthyridin-3-yl]oxy]-N-methyl-acetamide], the “Ymin (5 hr)” value is given as “++++ (Ymin < 30%)” and the DC50 is 10 to 100 nM.

As to `CNC(=O)COc1cc2cc(Nc3nc(N4CCC(CN5CCN(c6cccc7c(C8CCC(=O)NC8=O)nn(C)c67)[C@H](C)C5)CC4)ncc3F)cnc2n(C(C)C)c1=O` (stereo partly drawn) [Compound 210b, 2-[[6-[[2-[4-[[(3R)-4-[3-(2,6-dioxo-3-piperidyl)-1-methyl-indazol-7-yl]-3-methyl-piperazin-1-yl]methyl]-1-piperidyl]-5-fluoro-pyrimidin-4-yl]amino]-1-isopropyl-2-oxo-1,8-naphthyridin-3-yl]oxy]-N-methyl-acetamide], the “Ymin (5 hr)” value was “++++ (Ymin < 30%)” and the DC50 lay within 10 to 100 nM.

In the case of `CNC(=O)COc1cc2cc(Nc3nc(N4CCC(C(=O)N5CCN(c6ccc7c(C8CCC(=O)NC8=O)nn(C)c7c6)CC5)CC4)ncc3Cl)cnc2n(C(C)C)c1=O` (stereo not shown) [Compound 211, 2-[[6-[[5-chloro-2-[4-[4-[3-(2,6-dioxo-3-piperidyl)-1-methyl-indazol-6-yl]piperazine-1-carbonyl]-1-piperidyl]pyrimidin-4-yl]amino]-1-isopropyl-2-oxo-1,8-naphthyridin-3-yl]oxy]-N-methyl-acetamide], the “Ymin (5 hr)” value is “+++ (30% ≤ Ymin < 50%)” and the DC50 is under 10 nM.

On to `CNC(=O)COc1cc2cc(Nc3nc(N4CCC(CN5CCC(c6ccc7c(C8CCC(=O)NC8=O)nn(C)c7c6)CC5)CC4)ncc3Cl)cnc2n(C(C)C)c1=O` (stereo not shown) [Compound 212, 2-((6-((5-chloro-2-(4-((4-(3-(2,6-dioxopiperidin-3-yl)-1-methyl-1H-indazol-6-yl)piperidin-1-yl)methyl)piperidin-1-yl)pyrimidin-4-yl)amino)-1-isopropyl-2-oxo-1,2-dihydro-1,8-naphthyridin-3-yl)oxy)-N-methylacetamide], for which the “Ymin (5 hr)” value is “++++ (Ymin < 30%)” and the DC50 was under 10 nM.

`CNC(=O)COc1cc2cc(Nc3nc(N4CC5(CC(Oc6ccc7c(C8CCC(=O)NC8=O)nn(C)c7c6)C5)C4)ncc3Cl)cnc2n(C(C)C)c1=O` (stereo not shown) [Compound 213, 2-[[6-[[5-chloro-2-[6-[3-(2,6-dioxo-3-piperidyl)-1-methyl-indazol-6-yl]oxy-2-azaspiro[3.3]heptan-2-yl]pyrimidin-4-yl]amino]-1-isopropyl-2-oxo-1,8-naphthyridin-3-yl]oxy]-N-methyl-acetamide]: the “Ymin (5 hr)” value is “++++ (Ymin < 30%)” and the DC50 is under 10 nM.

For `CNC(=O)COc1cc2cc(Nc3nc(N4CCC(CN5CCN(c6ccc7c(C8CCC(=O)NC8=O)nn(C)c7c6)CC5)CC4)ncc3Cl)cnc2n(C(C)C)c1=O` (stereo not shown) [Compound 214, 2-((6-((5-chloro-2-(4-((4-(3-(2,6-dioxopiperidin-3-yl)-1-methyl-1H-indazol-6-yl)piperazin-1-yl)methyl)piperidin-1-yl)pyrimidin-4-yl)amino)-1-isopropyl-2-oxo-1,2-dihydro-1,8-naphthyridin-3-yl)oxy)-N-methylacetamide], the “Ymin (5 hr)” value is “+++ (30% ≤ Ymin < 50%)” and the DC50 is under 10 nM.

As for `CNC(=O)COc1cc2cc(Nc3nc(N4CCC(CN5CCN(c6ccc7c(C8CCC(=O)NC8=O)nn(C)c7c6)C[C@H]5C)CC4)ncc3Cl)cnc2n(C(C)C)c1=O` (stereo partly drawn) [Compound 215a, 2-((6-((5-chloro-2-(4-(((2R)-4-(3-(2,6-dioxopiperidin-3-yl)-1-methyl-1H-indazol-6-yl)-2-methylpiperazin-1-yl)methyl)piperidin-1-yl)pyrimidin-4-yl)amino)-1-isopropyl-2-oxo-1,2-dihydro-1,8-naphthyridin-3-yl)oxy)-N-methylacetamide], the “Ymin (5 hr)” value is “+++ (30% ≤ Ymin < 50%)” and the DC50 is under 10 nM.

As for `CNC(=O)COc1cc2cc(Nc3nc(N4CCC(CN5CCN(c6ccc7c(C8CCC(=O)NC8=O)nn(C)c7c6)C[C@@H]5C)CC4)ncc3Cl)cnc2n(C(C)C)c1=O` (stereo partly drawn) [Compound 215b, 2-((6-((5-chloro-2-(4-(((2S)-4-(3-(2,6-dioxopiperidin-3-yl)-1-methyl-1H-indazol-6-yl)-2-methylpiperazin-1-yl)methyl)piperidin-1-yl)pyrimidin-4-yl)amino)-1-isopropyl-2-oxo-1,2-dihydro-1,8-naphthyridin-3-yl)oxy)-N-methylacetamide], the “Ymin (5 hr)” value is “+++ (30% ≤ Ymin < 50%)” and the DC50 is 10 to 100 nM.

`CNC(=O)COc1cc2cc(Nc3nc(N4CCN(C[C@H]5CCN(c6ccc7c(C8CCC(=O)NC8=O)nn(C)c7c6)C5)[C@@H](C)C4)ncc3Cl)cnc2n(C(C)C)c1=O` (stereo partly drawn) [Compound 216a, 2-[[6-[[5-chloro-2-[(3S)-4-[[(3R)-1-[3-(2,6-dioxo-3-piperidyl)-1-methyl-indazol-6-yl]pyrrolidin-3-yl]methyl]-3-methyl-piperazin-1-yl]pyrimidin-4-yl]amino]-1-isopropyl-2-oxo-1,8-naphthyridin-3-yl]oxy]-N-methyl-acetamide]: the “Ymin (5 hr)” value is “++ (50% ≤ Ymin < 70%)” and the DC50 was in the range of 10 to 100 nM.

In the case of `CNC(=O)COc1cc2cc(Nc3nc(N4CCN(C[C@@H]5CCN(c6ccc7c(C8CCC(=O)NC8=O)nn(C)c7c6)C5)[C@@H](C)C4)ncc3Cl)cnc2n(C(C)C)c1=O` (stereo partly drawn) [Compound 216b, 2-((6-((5-Chloro-2-((3S)-4-(((3S)-1-(3-(2,6-dioxopiperidin-3-yl)-1-methyl-1H-indazol-6-yl)pyrrolidin-3-yl)methyl)-3-methylpiperazin-1-yl)pyrimidin-4-yl)amino)-1-isopropyl-2-oxo-1,2-dihydro-1,8-naphthyridin-3-yl)oxy)-N-methylacetamide], the “Ymin (5 hr)” value is on record as “+++ (30% ≤ Ymin < 50%)” and the DC50 lay within 10 to 100 nM.

With `CNC(=O)COc1cc2cc(Nc3nc(N4CCN(C[C@H]5CCN(c6ccc7c(C8CCC(=O)NC8=O)nn(C)c7c6)C5)[C@H](C)C4)ncc3Cl)cnc2n(C(C)C)c1=O` (stereo partly drawn) [Compound 216c, 2-[[6-[[5-chloro-2-[(3R)-4-[[(3R)-1-[3-(2,6-dioxo-3-piperidyl)-1-methyl-indazol-6-yl]pyrrolidin-3-yl]methyl]-3-methyl-piperazin-1-yl]pyrimidin-4-yl]amino]-1-isopropyl-2-oxo-1,8-naphthyridin-3-yl]oxy]-N-methyl-acetamide], the “Ymin (5 hr)” value is given as “++ (50% ≤ Ymin < 70%)” and the DC50 was under 10 nM.

`CNC(=O)COc1cc2cc(Nc3nc(N4CCN(C[C@@H]5CCN(c6ccc7c(C8CCC(=O)NC8=O)nn(C)c7c6)C5)[C@H](C)C4)ncc3Cl)cnc2n(C(C)C)c1=O` (stereo partly drawn) [Compound 216d, 2-[[6-[[5-chloro-2-[(3R)-4-[[(3S)-1-[3-(2,6-dioxo-3-piperidyl)-1-methyl-indazol-6-yl]pyrrolidin-3-yl]methyl]-3-methyl-piperazin-1-yl]pyrimidin-4-yl]amino]-1-isopropyl-2-oxo-1,8-naphthyridin-3-yl]oxy]-N-methyl-acetamide]: the “Ymin (5 hr)” value is on record as “+++ (30% ≤ Ymin < 50%)” and the DC50 is under 10 nM.
